From patent publication US20220000117A1, “METHOD FOR CONTROLLING DISEASES IN SMALL GRAIN CEREALS, SEED OF SMALL GRAIN CEREALS, AND METHOD FOR SUPPRESSING LODGING DAMAGE IN SMALL GRAIN CEREALS” (KUMIAI CHEMICAL INDUSTRY CO., LTD., priority 2019, published 2022)

Key:
[1] = system: septoria leaf blotch; experiment: Test Example 10: control test of septoria leaf blotch of wheat, cup in greenhouse, inoculated, variety ARKEOS (Tables 15 to 19); assay type: in vivo, Septoria tritici
Method: (§1) Degree of Disease Occurrence=Σ(Index×Number of Leaves of Index)/(4×Number of Investigated Leaves)×100 (1)
Seed of wheat (variety: ARKEOS) was used, and 100 ml of suspension waters each containing the compound shown in Table 15 at an amount shown in Table 15 (synthesis was performed in accordance with a known method, a liquid dissolved in a small amount of DMSO or formulated 10% wettable powder was used) were prepared. Seed having a mass of 1 kg was mixed into the suspension water with a rate shown in Examples of Table 15, and air-dried, and then, 5 seeds were sown in a plastic cup having a diameter of 6 cm containing mixed soil of river sand and horticultural soil and managed in a greenhouse. In Comparative Examples, 20 ml of suspension water of an active ingredient, which had been adjusted to have a concentration shown in Table 15 to 19, was sprayed in a frame of 45 cm×45 cm in which a pot of wheat seedlings was placed (corresponding to 1000 L/ha) 14 days after seeding. On day 14 after seeding, a spore suspension in which conidiospores of septoria leaf blotch are suspended was sprayed and inoculated on leaves of wheat seedlings (after the sprayed liquid was dried in the case of Comparative Examples), a lesion area ratio of septoria leaf blotch in a second leaf was investigated approximately 35 days after seeding according to the criteria in Table 1, and the degree of disease occurrence was calculated by the above calculation formula (1).

[2] = system: powdery mildew; experiment: Test Example 9: control test of wheat powdery mildew, cup in greenhouse, inoculated, Norin No. 61 (Tables 10 to 14); assay type: in vivo, Blumeria graminis; design: key to Degree of Disease Occurrence: Σ(index×leaves)/(4×leaves investigated)×100; 0 = no disease, 100 = max
Method: as §1
Seed of wheat (variety: Norin No. 61) was used, and 100 ml of suspension waters each containing the compound shown in Table 10 at an amount shown in […] (synthesis was performed in accordance with a known method, a solution dissolved in DMSO or formulated 10% wettable powder was used) were prepared. The seed having a mass of 1 kg of wheat was mixed into the suspension water with a chemical treated amount shown in Table 10, and air-dried, and then, 5 seeds were sown in a plastic cup having a diameter of 6 cm containing river sand and managed in a greenhouse. In Comparative Examples, 20 ml of the suspension water of an active ingredient, which had been adjusted to have a concentration shown in Table 10, was sprayed in a frame of 45 cm×45 cm in which a pot of wheat seedlings was placed (corresponding to 1000 L/ha) 14 days after seeding. On day 14 after seeding, conidiospores of powdery mildew were sifted over leaves of wheat seedlings and inoculated onto the leaves (after the sprayed liquid was dried in the case of Comparative Examples), a lesion area ratio of powdery mildew in a first leaf was investigated 21 days after seeding according to the criteria in Table 1, and the degree of disease occurrence was calculated by the above calculation formula (1).

[3] = Table 10 run, Foliage Treatment, spray 10 ppm (10 g/ha) day 14, first leaf, 21 days after seeding
[4] = Table 10 run, Foliage Treatment, spray 50 ppm (50 g/ha) day 14, first leaf, 21 days after seeding
[5] = Table 10 run, Foliage Treatment, spray 100 ppm (100 g/ha) day 14, first leaf, 21 days after seeding
[6] = Table 10 run, Seed Treatment 0.1 g/Seed 1 kg (10 g/ha), first leaf, 21 days after seeding
[7] = Table 10 run, Seed Treatment 0.5 g/Seed 1 kg (50 g/ha), first leaf, 21 days after seeding
[8] = Table 10 run, Seed Treatment 1 g/Seed 1 kg (100 g/ha), first leaf, 21 days after seeding
[9] = Table 11 run (different day), Foliage Treatment, spray 10 ppm (10 g/ha)
[10] = Table 11 run (different day), Foliage Treatment, spray 50 ppm (50 g/ha)
[11] = Table 11 run (different day), Seed Treatment 0.1 g/Seed 1 kg (10 g/ha)
[12] = Table 11 run (different day), Seed Treatment 0.5 g/Seed 1 kg (50 g/ha)
[13] = Table 13 run (different day), Foliage Treatment, spray 10 ppm (10 g/ha)
[14] = Table 13 run (different day), Foliage Treatment, spray 50 ppm (50 g/ha)
[15] = Table 13 run (different day), Seed Treatment 0.1 g/Seed 1 kg (10 g/ha)
[16] = Table 13 run (different day), Seed Treatment 0.5 g/Seed 1 kg (50 g/ha)
[17] = Table 13 run (different day), Foliage Treatment, spray 5 ppm (5 g/ha)
[18] = Table 13 run (different day), Seed Treatment 0.05 g/Seed 1 kg (5 g/ha)
[19] = Table 17, Foliage Treatment, spray 10 ppm suspension water (corresponding to 10 g/ha) 14 days after seeding, untreated 50.0
[20] = Table 17, Foliage Treatment, spray 10 ppm suspension water (corresponding to 10 g/ha) 14 days after seeding, untreated 100.0
[21] = Table 17, Foliage Treatment, spray 100 ppm suspension water (corresponding to 100 g/ha) 14 days after seeding, untreated 50.0
[22] = Table 17, Foliage Treatment, spray 100 ppm suspension water (corresponding to 100 g/ha) 14 days after seeding, untreated 100.0
[23] = Table 17, Seed Treatment, 0.1 g/Seed 1 kg (corresponding to 10 g/ha), untreated 50.0
[24] = Table 17, Seed Treatment, 0.1 g/Seed 1 kg (corresponding to 10 g/ha), untreated 100.0
[25] = Table 17, Seed Treatment, 1 g/Seed 1 kg (corresponding to 100 g/ha), untreated 50.0
[26] = Table 17, Seed Treatment, 1 g/Seed 1 kg (corresponding to 100 g/ha), untreated 100.0
[27] = Table 17, Foliage Treatment, spray 50 ppm suspension water (corresponding to 50 g/ha) 14 days after seeding, untreated 50.0
[28] = Table 17, Foliage Treatment, spray 50 ppm suspension water (corresponding to 50 g/ha) 14 days after seeding, untreated 100.0
[29] = Table 17, Seed Treatment, 0.5 g/Seed 1 kg (corresponding to 50 g/ha), untreated 50.0
[30] = Table 17, Seed Treatment, 0.5 g/Seed 1 kg (corresponding to 50 g/ha), untreated 100.0
[31] = Table 10 run, Foliage Treatment, spray 5 ppm (5 g/ha) day 14, first leaf, 21 days after seeding
[32] = Table 10 run, Seed Treatment 0.05 g/Seed 1 kg (5 g/ha), first leaf, 21 days after seeding

Compound | Degree of Disease Occurrence [2, 10] | Disease Leaf Rate (%) [2, 10] | Degree of Disease Occurrence [2, 12] | Disease Leaf Rate (%) [2, 12] | Degree of Disease Occurrence [2, 13] | Disease Leaf Rate (%) [2, 13] | Degree of Disease Occurrence [2, 14] | Disease Leaf Rate (%) [2, 14] | Degree of Disease Occurrence [2, 15] | Disease Leaf Rate (%) [2, 15] | Degree of Disease Occurrence [2, 16] | Disease Leaf Rate (%) [2, 16] | Degree of Disease Occurrence [1, 21] | Disease Leaf Rate (%) [1, 22] | Degree of Disease Occurrence [1, 25] | Disease Leaf Rate (%) [1, 26] | further results
N#Cc1snc(Cl)c1Cl [Compound (2)] | – | – | – | – | – | – | – | – | – | – | – | – | – | – | – | – | Degree of Disease Occurrence ([1]; Table 16, Foliage Treatment, spray 100 ppm suspension water (corresponding to 100 g/ha) 14 days after seeding, untreated 57.1): 51.0; Disease Leaf Rate (%) ([1]; Table 16, Foliage Treatment, spray 100 ppm suspension water (corresponding to 100 g/ha) 14 days after seeding, untreated 93.3): 100.0%; Degree of Disease Occurrence ([1]; Table 16, Seed Treatment, 1 g/Seed 1 kg (corresponding to 100 g/ha), untreated 57.1): 37.5; Disease Leaf Rate (%) ([1]; Table 16, Seed Treatment, 1 g/Seed 1 kg (corresponding to 100 g/ha), untreated 93.3): 81.3%; Degree of Disease Occurrence [2, 3]: 59.4; Disease Leaf Rate (%) [2, 3]: 100.0%; Degree of Disease Occurrence [2, 4]: 56.3; Disease Leaf Rate (%) [2, 4]: 100.0%; Degree of Disease Occurrence [2, 5]: 47.9; Disease Leaf Rate (%) [2, 5]: 95.8%; Degree of Disease Occurrence [2, 6]: 45.9; Disease Leaf Rate (%) [2, 6]: 100.0%; Degree of Disease Occurrence [2, 7]: 41.0; Disease Leaf Rate (%) [2, 7]: 93.8%; Degree of Disease Occurrence [2, 8]: 28.9; Disease Leaf Rate (%) [2, 8]: 87.5%
CC(=O)OCc1snc(Cl)c1Cl [Compound (4)] | 90.6 | 100% | 57.2 | 100% | 81.7 | 100.0% | 71.5 | 100.0% | 47.9 | 100.0% | 49.1 | 100.0% | – | – | – | – | Degree of Disease Occurrence [2, 9]: 100.0; Disease Leaf Rate (%) [2, 9]: 100%; Degree of Disease Occurrence [2, 11]: 74.1; Disease Leaf Rate (%) [2, 11]: 100%
O=C(OCc1snc(Cl)c1Cl)c1ccccc1 [Compound (5)] | 90.5 | 100% | 57.0 | 95% | 62.4 | 100.0% | 86.7 | 100.0% | 58.1 | 100.0% | 40.6 | 95.0% | – | – | – | – | Degree of Disease Occurrence [2, 17]: 100.0; Disease Leaf Rate (%) [2, 17]: 100.0%; Degree of Disease Occurrence [2, 18]: 66.1; Disease Leaf Rate (%) [2, 18]: 100.0%
COC(=O)c1snc(Cl)c1Cl [Compound (7)] | 94.8 | 100% | 78.8 | 100% | – | – | 77.1 | 100.0% | – | – | 61.3 | 100.0% | 50.0 | 93.3% | 19.4 | 77.5% | Degree of Disease Occurrence [1, 19]: 41.7; Disease Leaf Rate (%) [1, 20]: 100.0%; Degree of Disease Occurrence [1, 23]: 22.5; Disease Leaf Rate (%) [1, 24]: 68.8%
CCOC(=O)c1snc(Cl)c1Cl [Compound (8)] | 94.8 | 100% | 75.1 | 96.4% | 72.8 | 100.0% | – | – | 49.7 | 95.8% | – | – | 26.7 | 93.3% | 8.8 | 35.0% | Degree of Disease Occurrence ([1]; Table 17, Foliage Treatment, spray 5 ppm suspension water (corresponding to 5 g/ha) 14 days after seeding, untreated 50.0): 38.3; Disease Leaf Rate (%) ([1]; Table 17, Foliage Treatment, spray 5 ppm suspension water (corresponding to 5 g/ha) 14 days after seeding, untreated 100.0): 100.0%; Degree of Disease Occurrence [1, 27]: 31.7; Disease Leaf Rate (%) [1, 28]: 100.0%; Degree of Disease Occurrence ([1]; Table 17, Seed Treatment, 0.05 g/Seed 1 kg (corresponding to 5 g/ha), untreated 50.0): 23.8; Disease Leaf Rate (%) ([1]; Table 17, Seed Treatment, 0.05 g/Seed 1 kg (corresponding to 5 g/ha), untreated 100.0): 90.0%; Degree of Disease Occurrence [1, 29]: 10.3; Disease Leaf Rate (%) [1, 30]: 36.3%; Degree of Disease Occurrence [2, 9]: 96.9; Disease Leaf Rate (%) [2, 9]: 100%; Degree of Disease Occurrence [2, 11]: 80.2; Disease Leaf Rate (%) [2, 11]: 100%
NC(=O)c1snc(Cl)c1Cl [Compound (9)] | – | – | – | – | – | – | – | – | – | – | – | – | – | – | – | – | Degree of Disease Occurrence [2, 31]: 57.3; Disease Leaf Rate (%) [2, 31]: 100.0%; Degree of Disease Occurrence [2, 3]: 63.5; Disease Leaf Rate (%) [2, 3]: 100.0%; Degree of Disease Occurrence [2, 32]: 38.3; Disease Leaf Rate (%) [2, 32]: 96.9%; Degree of Disease Occurrence [2, 6]: 33.0; Disease Leaf Rate (%) [2, 6]: 83.9%
COC(=N)c1snc(Cl)c1Cl [Compound (11)] | 97.9 | 100% | 79.7 | 100% | 72.6 | 98.4% | 67.6 | 99.6% | 50.1 | 95.0% | 40.8 | 100.0% | 41.7 | 100.0% | 26.5 | 67.5% | Degree of Disease Occurrence [1, 19]: 31.7; Disease Leaf Rate (%) [1, 20]: 93.3%; Degree of Disease Occurrence [1, 27]: 35.0; Disease Leaf Rate (%) [1, 28]: 100.0%; Degree of Disease Occurrence [1, 23]: 22.5; Disease Leaf Rate (%) [1, 24]: 80.0%; Degree of Disease Occurrence [1, 29]: 18.8; Disease Leaf Rate (%) [1, 30]: 63.8%
